The record followed here is patent US10155259B2 (Merck Sharp & Dohme B.V., priority 2011, dated 2018).

SMILES strings stand for the structures.

In the test the target is T1, human FSH receptor (Homo sapiens, UniProt P23945).
T1 construct: expressed in transfected cells; host or cells: CHO cells, stably transfected; cotransfected with CRE-luciferase reporter
T1 sequence (P23945 18-695): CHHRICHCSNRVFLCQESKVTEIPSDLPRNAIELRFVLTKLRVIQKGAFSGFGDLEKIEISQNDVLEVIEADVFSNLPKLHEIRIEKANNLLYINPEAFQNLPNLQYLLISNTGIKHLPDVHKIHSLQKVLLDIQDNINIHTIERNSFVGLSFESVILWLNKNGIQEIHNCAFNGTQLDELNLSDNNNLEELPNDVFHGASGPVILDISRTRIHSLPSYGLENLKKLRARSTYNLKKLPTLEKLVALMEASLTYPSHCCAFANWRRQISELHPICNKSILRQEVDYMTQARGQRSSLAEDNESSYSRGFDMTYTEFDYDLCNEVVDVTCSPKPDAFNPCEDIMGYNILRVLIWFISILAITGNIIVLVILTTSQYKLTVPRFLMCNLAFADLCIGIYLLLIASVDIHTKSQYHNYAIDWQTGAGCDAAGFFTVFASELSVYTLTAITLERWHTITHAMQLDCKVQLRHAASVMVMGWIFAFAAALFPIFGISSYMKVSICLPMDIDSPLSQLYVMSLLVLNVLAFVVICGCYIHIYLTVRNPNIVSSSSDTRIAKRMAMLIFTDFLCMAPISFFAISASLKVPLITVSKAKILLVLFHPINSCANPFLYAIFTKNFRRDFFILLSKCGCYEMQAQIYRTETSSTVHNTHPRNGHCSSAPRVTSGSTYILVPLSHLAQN
Description: Antagonistic activity of compounds at the human FSH receptor expressed in CHO cells (CRE-luciferase reporter). The class given is cell-based. To be noted: CHO cells stably transfected with human FSH receptor and CRE/luciferase reporter; together with 49 μM recFSH; 4 hours incubation; 1% DMSO; read-out: IC50 (concentration of test compound causing half-maximal inhibition of the maximally attainable inhibition of the luciferase stimulation). As to the method: Antagonistic Activity of Compounds at the Human FSH Receptor Expressed in CHO Cells
Antagonistic activity of the compounds at the human FSH receptor was determined in Chinese Hamster Ovary (CHO) cells stably transfected with the human FSH receptor and cotransfected with a cAMP responsive element (CRE)/promotor directing the expression of a firefly luciferase reporter gene. Binding of the compounds to the Gs protein-coupled FSH receptor will result in an increase of cAMP, which in turn will induce an increased transactivation of the luciferase reporter. The cells (7,500 cells/well of a 384 well plate) were incubated in Dulbecco' minimal essential F12 modified medium (Invitrogen), supplemented with 1 μg/ml bovine insulin, 5 μg/ml human apo-transferrin, 100 U/ml penicillin G and 100 μg/ml streptomycin with the test compounds (concentration between 0.316 nM and 10.0 μM) in duplicate together with […] (which, at this concentration in the absence of test compound, induces 80% of the maximal luciferase stimulation) in a humidified atmosphere (95%) at 5-7% CO2 and 37° C. The final concentration of DMSO was 1%. After 4 hours of incubation, plates were allowed to adjust to room temperature for 1 hour. Then, SteadyLite (PerkinElmer) solution was added to the wells and cells were allowed to lyse for at least 1 hour at room temperature. Subsequently, luciferase activity was measured in a luminescence counter. The signal is expressed as counts per second (cps). The IC50 (concentration of test compound causing half-maximal (50%) inhibition of the maximally attainable inhibition of the luciferase stimulation by the compound) and efficacy of the compounds were determined using the software program MathIQ (version 2.3, ID Business Solutions Limited).
(In general: In a reporter assay the amount or activity of a reporter protein is the signal.)
As for `COc1cc2c(cc1C(=O)N1CCOCC1)-c1cc(C(=O)N[C@@H](CO)Cc3c[nH]c4ccccc34)c(-c3cccc(F)c3)n1CC2` [Example 47, (R)-3-(3-fluorophenyl)-N-(1-hydroxy-3-(1H-indol-3-yl)propan-2-yl)-8-methoxy-9-(morpholine-4-carbonyl)-5,6-dihydropyrrolo[2,1-a]isoquinoline-2-carboxamide], the IC50 is 0.1 to 1 µM.
On to `COc1cc2c(cc1C(=O)N(C)C)-c1cc(C(=O)N[C@@H](CO)Cc3c[nH]c4ccccc34)c(-c3cccc(F)c3)n1CC2` [Example 48, (R)-3-(3-fluorophenyl)-N2-(1-hydroxy-3-(1H-indol-3-yl)propan-2-yl)-8-methoxy-N9,N9-dimethyl-5,6-dihydropyrrolo[2,1-a]isoquinoline-2,9-dicarboxamide], for which the IC50 was in the range of 0.1 to 1 µM.
For the molecule `COc1cc2c(cc1-c1cncnc1)-c1cc(C(=O)N[C@@H](CO)Cc3c[nH]c4ccccc34)c(-c3cccs3)n1CC2` [Example 49, (R)—N-(1-hydroxy-3-(1H-indol-3-yl)propan-2-yl)-8-methoxy-9-(pyrimidin-5-yl)-3-(thiophen-2-yl)-5,6-dihydropyrrolo[2,1-a]isoquinoline-2-carboxamide], the IC50 was < 0.1 µM.
As for `COc1cc2c(cc1-c1cncnc1)-c1cc(C(=O)N[C@@H](CO)Cc3c[nH]c4ccccc34)c(-c3cccc(F)c3)n1CC2` [Example 50, (R)-3-(3-fluorophenyl)-N-(1-hydroxy-3-(1H-indol-3-yl)propan-2-yl)-8-methoxy-9-(pyrimidin-5-yl)-5,6-dihydropyrrolo[2,1-a]isoquinoline-2-carboxamide], the IC50 is < 0.1 µM.
Consider `COc1cc2c(cc1-c1cnc(N(C)C)nc1)-c1cc(C(=O)N[C@@H](CO)Cc3c[nH]c4ccccc34)c(-c3cccc(F)c3)n1CC2` [Example 51, (R)-9-(2-(dimethylamino)pyrimidin-5-yl)-3-(3-fluorophenyl)-N-(1-hydroxy-3-(1H-indol-3-yl)propan-2-yl)-8-methoxy-5,6-dihydropyrrolo[2,1-a]isoquinoline-2-carboxamide], for which the IC50 lay in the range of 0.1 to 1 µM.
Turning to `COc1cc2c(cc1-c1cnn(C)c1)-c1cc(C(=O)N[C@@H](CO)Cc3c[nH]c4ccccc34)c(-c3cccc(F)c3)n1CC2` [Example 52, (R)-3-(3-fluorophenyl)-N-(1-hydroxy-3-(1H-indol-3-yl)propan-2-yl)-8-methoxy-9-(1-methyl-1H-pyrazol-4-yl)-5,6-dihydropyrrolo[2,1-a]isoquinoline-2-carboxamide], the IC50 was < 0.1 µM.
Then `COc1cc2c(cc1-c1cccnc1OC)-c1cc(C(=O)N[C@@H](CO)Cc3c[nH]c4ccccc34)c(-c3cccc(F)c3)n1CC2` [Example 53, 3-(3-fluorophenyl)-N—((R)-1-hydroxy-3-(1H-indol-3-yl)propan-2-yl)-8-methoxy-9-(2-methoxypyridin-3-yl)-5,6-dihydropyrrolo[2,1-a]isoquinoline-2-carboxamide], with < 0.1 µM; and `COc1cc2c(cc1-c1cccnc1OC)-c1cc(C(=O)N[C@@H](CO)Cc3c[nH]c4ccccc34)c(-c3cccs3)n1CC2` [Example 54, N—((R)-1-hydroxy-3-(1H-indol-3-yl)propan-2-yl)-8-methoxy-9-(2-methoxypyridin-3-yl)-3-(thiophen-2-yl)-5,6-dihydropyrrolo[2,1-a]isoquinoline-2-carboxamide], with < 0.1 µM; and `COc1cc2c(cc1-c1cnn(C)c1)-c1cc(C(=O)N[C@@H](CO)Cc3c[nH]c4ccccc34)c(-c3cccs3)n1CC2` [Example 55, (R)—N-(1-hydroxy-3-(1H-indol-3-yl)propan-2-yl)-8-methoxy-9-(1-methyl-1H-pyrazol-4-yl)-3-(thiophen-2-yl)-5,6-dihydropyrrolo[2,1-a]isoquinoline-2-carboxamide], with < 0.1 µM.
On to `COc1cc2c(cc1-c1cnc(N(C)C)nc1)-c1cc(C(=O)N[C@@H](CO)Cc3c[nH]c4ccccc34)c(-c3cccs3)n1CC2` [Example 56, (R)-9-(2-(dimethylamino)pyrimidin-5-yl)-N-(1-hydroxy-3-(1H-indol-3-yl)propan-2-yl)-8-methoxy-3-(thiophen-2-yl)-5,6-dihydropyrrolo[2,1-a]isoquinoline-2-carboxamide], for which the IC50 was < 0.1 µM.
With `COc1cc(-c2cc3c(cc2OC)CCn2c-3cc(C(=O)N[C@@H](CO)Cc3c[nH]c4ccccc34)c2-c2cccs2)ccn1` [Example 57, (R)—N-(1-hydroxy-3-(1H-indol-3-yl)propan-2-yl)-8-methoxy-9-(2-methoxypyridin-4-yl)-3-(thiophen-2-yl)-5,6-dihydropyrrolo[2,1-a]isoquinoline-2-carboxamide], the IC50 is < 0.1 µM.
In the case of `COc1ccc(-c2cc3c(cc2OC)CCn2c-3cc(C(=O)N[C@@H](CO)Cc3c[nH]c4ccccc34)c2-c2cccs2)cn1` [Example 58, (R)—N-(1-hydroxy-3-(1H-indol-3-yl)propan-2-yl)-8-methoxy-9-(6-methoxypyridin-3-yl)-3-(thiophen-2-yl)-5,6-dihydropyrrolo[2,1-a]isoquinoline-2-carboxamide], the IC50 was < 0.1 µM.
With `COc1cc2c(cc1-c1cn[nH]c1)-c1cc(C(=O)N[C@@H](CO)Cc3c[nH]c4ccccc34)c(-c3cccs3)n1CC2` [Example 59, (R)—N-(1-hydroxy-3-(1H-indol-3-yl)propan-2-yl)-8-methoxy-9-(1H-pyrazol-4-yl)-3-(thiophen-2-yl)-5,6-dihydropyrrolo[2,1-a]isoquinoline-2-carboxamide], the IC50 is < 0.1 µM.
For `COc1cc2c(c(OC)c1OC)CCn1c-2cc(C(=O)N[C@@H](CO)Cc2c[nH]c3ccccc23)c1-c1ccccc1` [Example 60, (R)—N-(1-hydroxy-3-(1H-indol-3-yl)propan-2-yl)-7,8,9-trimethoxy-3-phenyl-5,6-dihydropyrrolo[2,1-a]isoquinoline-2-carboxamide], the IC50 is < 0.1 µM.
In the case of `COc1cc2c(c(OC)c1OC)CCn1c-2cc(C(=O)N[C@@H](CO)Cc2c[nH]c3ccccc23)c1-c1cccs1` [Example 61, (R)—N-(1-hydroxy-3-(1H-indol-3-yl)propan-2-yl)-7,8,9-trimethoxy-3-(thiophen-2-yl)-5,6-dihydropyrrolo[2,1-a]isoquinoline-2-carboxamide], the IC50 is < 0.1 µM.
For the molecule `COc1cc2c(c(OC)c1OC)CCn1c-2cc(C(=O)N[C@@H](CO)Cc2c[nH]c3ccccc23)c1-c1cccc(F)c1` [Example 62, (R)-3-(3-fluorophenyl)-N-(1-hydroxy-3-(1H-indol-3-yl)propan-2-yl)-7,8,9-trimethoxy-5,6-dihydropyrrolo[2,1-a]isoquinoline-2-carboxamide], the IC50 is < 0.1 µM.
With `COc1cc2c(c(OC)c1OC)-c1cc(C(=O)N[C@@H](CO)Cc3c[nH]c4ccccc34)c(-c3ccccc3)n1CC2` [Example 63, (R)—N-(1-hydroxy-3-(1H-indol-3-yl)propan-2-yl)-8,9,10-trimethoxy-3-phenyl-5,6-dihydropyrrolo[2,1-a]isoquinoline-2-carboxamide], the IC50 is < 0.1 µM.
For the molecule `COc1cc2c(c(OC)c1OC)-c1cc(C(=O)N[C@@H](CO)Cc3c[nH]c4ccccc34)c(-c3cccs3)n1CC2` [Example 64, (R)—N-(1-hydroxy-3-(1H-indol-3-yl)propan-2-yl)-8,9,10-trimethoxy-3-(thiophen-2-yl)-5,6-dihydropyrrolo[2,1-a]isoquinoline-2-carboxamide], the IC50 was < 0.1 µM.
Regarding `COc1cc2c(c(OC)c1OC)-c1cc(C(=O)N[C@@H](CO)Cc3c[nH]c4ccccc34)c(-c3cccc(F)c3)n1CC2` [Example 65, (R)-3-(3-fluorophenyl)-N-(1-hydroxy-3-(1H-indol-3-yl)propan-2-yl)-8,9,10-trimethoxy-5,6-dihydropyrrolo[2,1-a]isoquinoline-2-carboxamide], the IC50 is < 0.1 µM.
